The text below walks through data of US9062046B2, “Substituted imidazoquinoline derivatives as kinase inhibitors” (Piramal Enterprises Limited, priority 2011, dated 2015).

Assay [1] has as its system A2780 (ovarian cell line). As to the kind of experiment: Cytotoxicity assay (propidium iodide assay), A2780. The class given is cell-based. As to conditions: Homo sapiens, A2780 cells, 48 h treatment. Here is the method: (§1) The assay was designed as in the reference, Anticancer Drugs, 2002, 13, 1-8, the disclosure of which is incorporated by reference for the teaching of the assay.
(§2) Cells from cell lines A2780 (ovarian cell line) and PC3 (prostate cell line) (both from ATCC) were seeded at a density of 3000 cells/well in a white opaque 96-well plate. Following incubation at 37° C./5% CO2 for a period of 18-24 h, the cells were treated with various concentrations (stock solution was prepared in DMSO and subsequent dilutions were made in media as per ATCC guidelines) of the test compounds for a period of 48 h. At the end of treatment, the culture medium was discarded, the cells were washed with 1×PBS and 200 μl of 7 μg/ml propidium iodide was added to each well. The plates were frozen at −70° C. overnight. For analysis, the plates were warmed to RT, allowed to thaw and were read in PoleStar fluorimeter with the fluorescence setting. The percentage of viable cells in the non-treated set of wells was considered to be 100 and the percentage viability following treatment was calculated accordingly. IC50 values were calculated from graphs plotted using these percentages.

Another assay concerns PC3 (prostate cell line). As to the kind of experiment: Cytotoxicity assay (propidium iodide assay), PC3. The class given is cell-based. As to conditions: Homo sapiens, PC-3, PC3 cells, 48 h treatment. Here is the method:
as §1, §2

For orientation: inhibition means the percentage by which the read-out fell short of the control. A lower inhibition goes with a weak effect. The IC50 is the concentration that inhibits the measured activity by half. Lower therefore signals higher potency.

For the compound `Cn1c(=NC#N)n(-c2ccc(C(C)(C)C#N)nc2)c2c3cc(-c4cccc(C(F)(F)F)c4)ccc3ncc21` [Example 69, N-(1-(6-(2-cyanopropan-2-yl)pyridin-3-yl)-3-methyl-8-(3-(trifluoromethyl)phenyl)-1H-imidazo[4,5-c]quinolin-2(3H)-ylidene)cyanamide], the values for the inhibition at 1 µM (in assay [1]; in the assay with PC3 (prostate cell line)) were no less than 70% and 30 to 70%, respectively.

As to `COc1cc(OC)cc(-n2c(=NC#N)n(C)c3cnc4ccc(-c5cccnc5)cc4c32)c1` [Example 102, N-(1-(3,5-dimethoxyphenyl)-3-methyl-8-(pyridin-3-yl)-1H-imidazo[4,5-c]quinolin-2(3H)-ylidene)cyanamide], the inhibition at 1 µM in assay [1] was no less than 70%; with PC3 (prostate cell line) it was less than 30%.

Turning to `Cn1c(=NC#N)n(-c2ccc(C(C)(C)C#N)nc2)c2c3cc(-c4cnc(NCc5ccccc5)c(C(F)(F)F)c4)ccc3ncc21` [Example 138, N-(8-(6-(benzylamino)-5-(trifluoromethyl)pyridin-3-yl)-1-(6-(2-cyanopropan-2-yl)pyridin-3-yl)-3-methyl-1H-imidazo[4,5-c]quinolin-2(3H)-ylidene)cyanamide], the IC50 (in assay [1]; in the assay on PC3 (prostate cell line)) was no more than 0.5 µM each time.

`COc1ccc(-n2c(=NC#N)n(C)c3cnc4ccc(-c5cnc6ccccc6c5)cc4c32)cn1` [Example 3, N-(1-(6-methoxypyridin-3-yl)-3-methyl-8-(quinolin-3-yl)-1H-imidazo[4,5-c]quinolin-2(3H)-ylidene)cyanamide]: the IC50 (in assay [1]; in the assay on PC3 (prostate cell line)) was no more than 0.5 µM each time.

As to `Cn1c(=NC#N)n(-c2ccc(C(C)(C)C#N)nc2)c2c3cc(-c4ccc(N5CCN(C(=O)OC(C)(C)C)CC5)nc4)ccc3ncc21` [Example 72, tert-butyl 4-(5-(2-(cyanoimino)-1-(6-(2-cyanopropan-2-yl)pyridin-3-yl)-3-methyl-2,3-dihydro-1H-imidazo[4,5-c]quinolin-8-yl)pyridin-2-yl)piperazine-1-carboxylate], the inhibition at 1 µM (in assay [1]; in the assay on PC3 (prostate cell line)) was less than 30% in each case.

With `CCn1c(=NC#N)n(-c2ccc(C(C)(C)C#N)cc2)c2c3cc(-c4cccnc4)ccc3ncc21` [Example 86, N-(1-(4-(2-cyanopropan-2-yl)phenyl)-3-ethyl-8-(pyridin-3-yl)-1H-imidazo[4,5-c]quinolin-2(3H)-ylidene)cyanamide], the inhibition at 1 µM in assay [1] is no less than 70%; in the assay with PC3 (prostate cell line), 30 to 70%.

Turning to `COc1ccc(-c2ccc3ncc4c(c3c2)n(-c2ccc(C(C)(C)C#N)nc2)c(=NC#N)n4C)cn1` [Example 51, N-(1-(6-(2-cyanopropan-2-yl)pyridin-3-yl)-8-(6-methoxypyridin-3-yl)-3-methyl-1H-imidazo[4,5-c]quinolin-2(3H)-ylidene)cyanamide], the inhibition at 1 µM in assay [1] was no less than 70%; in the assay with PC3 (prostate cell line) it was 30 to 70%.

For the compound `COc1ccc(F)cc1-c1ccc2ncc3c(c2c1)n(-c1ccc(C(C)(C)C#N)nc1)c(=NC#N)n3C` [Example 52, N-(1-(6-(2-cyanopropan-2-yl)pyridin-3-yl)-8-(5-fluoro-2-methoxyphenyl)-3-methyl-1H-imidazo[4,5-c]quinolin-2(3H)-ylidene)cyanamide], the inhibition at 1 µM (in assay [1]; in the assay with PC3 (prostate cell line)) was less than 30% each time.

`Cn1c(=NC#N)n(-c2ccc(C(C)(C)C#N)cc2)c2c3cc(-c4cnc5ccccc5c4)ccc3ncc21` [Example 7, N-(1-(4-(2-cyanopropan-2-yl)phenyl)-3-methyl-8-(quinolin-3-yl)-1H-imidazo[4,5-c]quinolin-2(3H)-ylidene)cyanamide]: the IC50 (in assay [1]; in the assay with PC3 (prostate cell line)) was no more than 0.5 µM each time.

On to `Cn1c(=NC#N)n(-c2ccc(C(C)(C)C#N)nc2)c2c3cc(-c4ccncc4)ccc3ncc21` [Example 81, N-(1-(6-(2-cyanopropan-2-yl)pyridin-3-yl)-3-methyl-8-(pyridin-4-yl)-1H-imidazo[4,5-c]quinolin-2(3H)-ylidene)cyanamide], for which the IC50 (in assay [1]; in the assay on PC3 (prostate cell line)) was no more than 0.5 µM in each case.

As to `COc1cc(OC)cc(-n2c(=NC#N)n(C)c3cnc4ccc(-c5cnc(N)c(C(F)(F)F)c5)cc4c32)c1` [Example 97, N-(8-(6-amino-5-(trifluoromethyl)pyridin-3-yl)-1-(3,5-dimethoxyphenyl)-3-methyl-1H-imidazo[4,5-c]quinolin-2(3H)-ylidene)cyanamide], the inhibition at 1 µM (in assay [1]; with PC3 (prostate cell line)) was no less than 70% in each case.

For the compound `CC(=O)Nc1cc(C)c(-c2ccc3ncc4c(c3c2)n(-c2ccc(C(C)(C)C#N)nc2)c(=NC#N)n4C)cn1` [Example 128, N-(5-(2-(cyanoimino)-1-(6-(2-cyanopropan-2-yl)pyridin-3-yl)-3-methyl-2,3-dihydro-1H-imidazo[4,5-c]quinolin-8-yl)-4-methylpyridin-2-yl)acetamide], the inhibition at 1 µM in assay [1] was 30 to 70%; with PC3 (prostate cell line), less than 30%.

With `Cn1c(=NC#N)n(-c2ccc(C(C)(C)C#N)nc2)c2c3cc(-c4ccnc(N5CCOCC5)c4Cl)ccc3ncc21` [Example 121, N-(8-(3-chloro-2-morpholinopyridin-4-yl)-1-(6-(2-cyanopropan-2-yl)pyridin-3-yl)-3-methyl-1H-imidazo[4,5-c]quinolin-2(3H)-ylidene)cyanamide], the inhibition at 1 µM (in assay [1]; in the assay with PC3 (prostate cell line)) was less than 30% each time.

Consider `COc1ccc(-n2c(=NC#N)n(C)c3cnc4ccc(-c5cc(F)ccc5OC)cc4c32)cn1` [Example 47, N-(8-(5-fluoro-2-methoxyphenyl)-1-(6-methoxypyridin-3-yl)-3-methyl-1H-imidazo[4,5-c]quinolin-2(3H)-ylidene)cyanamide], for which the inhibition at 1 µM (in assay [1]; in the assay with PC3 (prostate cell line)) was less than 30% in each case.

Consider `COc1ccc(-c2ccc3ncc4c(c3c2)n(-c2ccc(C(C)(C)C#N)nc2)c(=NC#N)n4C)cc1OC` [Example 66, N-(1-(6-(2-cyanopropan-2-yl)pyridin-3-yl)-8-(3,4-dimethoxyphenyl)-3-methyl-1H-imidazo[4,5-c]quinolin-2(3H)-ylidene)cyanamide], for which the inhibition at 1 µM (in assay [1]; in the assay with PC3 (prostate cell line)) was no less than 70% each time.

`COc1ccc(-n2c(=NC#N)n(C)c3cnc4ccc(-c5ccc(C)cc5)cc4c32)cn1` [Example 44, N-(1-(6-methoxypyridin-3-yl)-3-methyl-8-p-tolyl-1H-imidazo[4,5-c]quinolin-2(3H)-ylidene)cyanamide]: the inhibition at 1 µM was 30 to 70% in assay [1] and less than 30% with PC3 (prostate cell line).

As to `Cn1c(=NC#N)n(-c2ccc(OC(F)(F)F)cc2)c2c3cc(-c4ccncc4)ccc3ncc21` [Example 109, N-(3-methyl-8-(pyridin-4-yl)-1-(4-(trifluoromethoxy)phenyl)-1H-imidazo[4,5-c]quinolin-2(3H)-ylidene)cyanamide], the IC50 in assay [1] was no more than 0.5 µM; in the assay on PC3 (prostate cell line) it was 0.5 to 2 µM.

Take `COc1ccc(-n2c(=NC#N)n(C)c3cnc4ccc(-c5cccnc5)cc4c32)c(OC)c1` [Example 101, N-(1-(2,4-dimethoxyphenyl)-3-methyl-8-(pyridin-3-yl)-1H-imidazo[4,5-c]quinolin-2(3H)-ylidene)cyanamide]: the IC50 (in assay [1]; in the assay with PC3 (prostate cell line)) was no more than 0.5 µM in each case.

Turning to `CC(C)Oc1ccccc1-c1ccc2ncc3c(c2c1)n(-c1ccc(C(C)(C)C#N)nc1)c(=NC#N)n3C` [Example 65, N-(1-(6-(2-cyanopropan-2-yl)pyridin-3-yl)-8-(2-isopropoxyphenyl)-3-methyl-1H-imidazo[4,5-c]quinolin-2(3H)-ylidene)cyanamide], the inhibition at 1 µM (in assay [1]; in the assay on PC3 (prostate cell line)) was less than 30% in each case.

Take `COc1ccc(-n2c(=NC#N)n(C)c3cnc4ccc(-c5cnc(NC(=O)OC(C)(C)C)c(C(F)(F)F)c5)cc4c32)cn1` [Example 123, tert-butyl 5-(2-(cyanoimino)-1-(6-methoxypyridin-3-yl)-3-methyl-2,3-dihydro-1H-imidazo[4,5-c]quinolin-8-yl)-3-(trifluoromethyl)pyridin-2-ylcarbamate]: the half-maximal inhibitory concentration (IC50) (in assay [1]; with PC3 (prostate cell line)) was no more than 0.5 µM in each case.

With `CC(C)(C#N)c1ccc(-n2c(=NC#N)[nH]c3cnc4ccc(-c5cnc(N)c(C(F)(F)F)c5)cc4c32)cc1` [Example 83, N-(8-(6-amino-5-(trifluoromethyl)pyridin-3-yl)-1-(4-(2-cyanopropan-2-yl)phenyl)-1H-imidazo[4,5-c]quinolin-2(3H)-ylidene)cyanamide], the inhibition at 1 µM was no less than 70% in assay [1] and 30 to 70% in the assay with PC3 (prostate cell line).

For the compound `Cn1c(=NC#N)n(-c2ccc3ncccc3c2)c2c3cc(-c4cnc(N)c(C(F)(F)F)c4)ccc3ncc21` [Example 11, N-(8-(6-amino-5-(trifluoromethyl)pyridin-3-yl)-3-methyl-1-(quinolin-6-yl)-1H-imidazo[4,5-c]quinolin-2(3H)-ylidene)cyanamide], the IC50 (in assay [1]; in the assay with PC3 (prostate cell line)) was no more than 0.5 µM throughout.

Regarding `COc1ccc(-n2c(=NC#N)n(C)c3cnc4ccc(-c5cccc(O)c5)cc4c32)cn1` [Example 38, N-(8-(3-hydroxyphenyl)-1-(6-methoxypyridin-3-yl)-3-methyl-1H-imidazo[4,5-c]quinolin-2(3H)-ylidene)cyanamide], the inhibition at 1 µM in assay [1] was no less than 70%; in the assay with PC3 (prostate cell line), 30 to 70%.

As for `COc1ccc(-n2c(=NC#N)n(C)c3cnc4ccc(-c5cccnc5C)cc4c32)cn1` [Example 45, N-(1-(6-methoxypyridin-3-yl)-3-methyl-8-(2-methylpyridin-3-yl)-1H-imidazo[4,5-c]quinolin-2(3H)-ylidene)cyanamide], the inhibition at 1 µM is 30 to 70% in assay [1] and less than 30% in the assay on PC3 (prostate cell line).
